{"source": "patent US20260041661A1", "about": "“THREE-COMPONENT PRODRUG, PHARMACEUTICAL COMPOSITION THEREOF, AND MEDICAL USE THEREOF” (J2H BIOTECH INC., priority 2022, published 2026)", "key": {"[1]": {"system": "EAE mice (experimental autoimmune encephalomyelitis)", "assay": "Efficacy in EAE animal model of multiple sclerosis: clinical score", "type": "in vivo, C57BL/6 mice", "conditions": "for Clinical Score (Day 21): day 2-21, score 0 to 5, vehicle group 3.2"}, "[2]": {"system": "CD4 T cells, CD8 T cells, Th1 cells and Th17 cells", "assay": "Immune cell infiltration in EAE mice by flow cytometry", "type": "in vivo, C57BL/6 mice", "conditions": "for CD8 T Cell (%) / CD4 T Cell (%): tissue not given; for CD8 T Cell (%): vehicle group 16.0; for CD4 T Cell (%): vehicle group 23.2; for Th17 Cell (%): vehicle group 12.4; for Th1 Cell (%): vehicle group 15.4"}, "[3]": {"system": "prostaglandin D2 (PGD2)", "assay": "Toxicity evaluation: flushing side effect by blood prostaglandin D2 concentration (ELISA)", "type": "in vivo", "conditions": "C57BL6 male mice, 165.6 mg/kg vs DMF 60 mg/kg, 5 minutes after administration", "method": "The flushing phenomenon was confirmed through analysis of the concentration of prostaglandin D2 (PGD2) in the blood. PGD2 is a bio-derived substance closely related to the flushing phenomenon, and the concentration analysis of PGD2 in the blood is known as a standard test method for predicting the side effects of drugs. (The journal of pharmacology and experimental therapeutics, 2008, 327(3), 665.) The test method was conducted by dividing C57BL6 male mice into three groups as test animals. […] PGD2 present in the collected blood was measured using an Elisa kit (#CSB-E14022m, CUSABIO)."}, "[4]": {"conditions": "cited from earlier work"}, "[5]": {"conditions": "RRMS patients, DRF 462 mg twice daily for 5 weeks; cited from earlier work"}, "[6]": {"conditions": "EVOLVE-MS-1 phase 3 clinical program"}}, "note": "Structures can show the parent of a compound that is named as a salt."}
{"smiles": "COC(=O)/C=C/C(=O)OC", "note": "[Dimethyl fumarate]", "values": [{"measurement": "Clinical Score (Day 21)", "setting": "[1]; DMF 30 mpk oral twice a day", "value": 2.3}, {"measurement": "Clinical Score (Day 21)", "setting": "[1]; DMF 60 mpk oral twice a day", "value": 1.3}, {"measurement": "Severity of the disease (clinical score) vs negative control", "setting": "[1]; low (G3, 30 mg/kg) and high (G4, 60 mg/kg) dose", "value": "significantly reduced the severity of the disease"}, {"measurement": "CD8 T Cell (%)", "setting": "[2]; DMF 30 mpk", "value": 8.8, "unit": "%"}, {"measurement": "CD4 T Cell (%)", "setting": "[2]; DMF 30 mpk", "value": 13.1, "unit": "%"}, {"measurement": "Th17 Cell (%)", "setting": "[2]; DMF 30 mpk", "value": 10.1, "unit": "%"}, {"measurement": "Th1 Cell (%)", "setting": "[2]; DMF 30 mpk", "value": 10.2, "unit": "%"}, {"measurement": "CD8 T Cell (%)", "setting": "[2]; DMF 60 mpk", "value": 8.5, "unit": "%"}, {"measurement": "CD4 T Cell (%)", "setting": "[2]; DMF 60 mpk", "value": 13.8, "unit": "%"}, {"measurement": "Th17 Cell (%)", "setting": "[2]; DMF 60 mpk", "value": 6.3, "unit": "%"}, {"measurement": "Th1 Cell (%)", "setting": "[2]; DMF 60 mpk", "value": 7.9, "unit": "%"}]}
{"smiles": "COC(=O)/C=C/C(=O)Oc1ccc(COC(=O)c2ccccc2OC(C)=O)cc1", "note": "[Example 1, 4-((acetoxybenzoyloxy)methyl)phenyl Methyl Fumarate]", "values": [{"measurement": "Clinical Score (Day 21)", "setting": "[1]; chemical formula 1 82.8 mpk oral twice a day", "value": 2.0}, {"measurement": "Clinical Score (Day 21)", "setting": "[1]; chemical formula 1 165.6 mpk oral twice a day", "value": 1.5}, {"measurement": "Clinical score improvement", "setting": "[1]; low dose (G5, 82.8 mg/kg) and high dose (G6, 165.6 mg/kg)", "value": "significant clinical score improvement effects"}, {"measurement": "Infiltration rate of CD4 and CD8 T cells in the lymph nodes compared to disease-induced group (G2)", "setting": "[2]; FIG. 1, low-dose (G5) and high-dose (G6)", "value": "significant decrease"}, {"measurement": "Infiltration rate of CD4 and CD8 T cells in the central nervous system compared to disease-induced group (G2)", "setting": "[2]; FIG. 2, low-dose (G5) and high-dose (G6)", "value": "significant decrease"}, {"measurement": "Infiltration rate of Th1 and Th17 cells in the lymph nodes compared to disease-induced group (G2)", "setting": "[2]; FIG. 3, low-dose (G5) and high-dose (G6)", "value": "decrease"}, {"measurement": "CD8 T Cell (%)", "setting": "[2]; chemical formula 1 82.8 mpk", "value": 7.8, "unit": "%"}, {"measurement": "CD4 T Cell (%)", "setting": "[2]; chemical formula 1 82.8 mpk", "value": 11.2, "unit": "%"}, {"measurement": "Th17 Cell (%)", "setting": "[2]; chemical formula 1 82.8 mpk", "value": 8.8, "unit": "%"}, {"measurement": "Th1 Cell (%)", "setting": "[2]; chemical formula 1 82.8 mpk", "value": 8.8, "unit": "%"}, {"measurement": "CD8 T Cell (%)", "setting": "[2]; chemical formula 1 165.6 mpk", "value": 4.7, "unit": "%"}, {"measurement": "CD4 T Cell (%)", "setting": "[2]; chemical formula 1 165.6 mpk", "value": 6.5, "unit": "%"}, {"measurement": "Th17 Cell (%)", "setting": "[2]; chemical formula 1 165.6 mpk", "value": 7.5, "unit": "%"}, {"measurement": "Th1 Cell (%)", "setting": "[2]; chemical formula 1 165.6 mpk", "value": 6.4, "unit": "%"}, {"measurement": "Decrease of blood PGD2 compared to the group administered with dimethyl fumarate", "setting": "[3]", "value": 76.6, "unit": "%"}]}
{"smiles": "COC(=O)/C=C/C(=O)OCCN1C(=O)CCC1=O", "note": "[diroximel fumarate]", "values": [{"measurement": "Subjects who discontinued administration", "setting": "[4]; [6]", "value": 14.9, "unit": "%"}, {"measurement": "Subjects who discontinued due to drug-induced side effects", "setting": "[4]; [6]", "value": 6.3, "unit": "%"}, {"measurement": "Incidence of gastrointestinal side effects (GI TEAEs)", "setting": "[4]; all patients administered DRF, phase 3 clinical trials", "value": "more than 30%"}, {"measurement": "Decrease of incidence of gastrointestinal side effects compared to DMF group", "setting": "[4]; phase 3 clinical trials, vs the 40% incidence with DMF", "value": 10, "unit": "%"}, {"measurement": "Diarrhea, frequency reported", "setting": "[5]", "value": 15.4, "unit": "%"}, {"measurement": "Flushing, frequency reported", "setting": "[5]", "value": 32.8, "unit": "%"}, {"measurement": "Nausea, frequency reported", "setting": "[5]", "value": 14.6, "unit": "%"}]}
